Key:
Assay type in all cases: in vivo
[1] = tested on: smallflower flatsedge (Cyperus difformis); test: Test B flooded paddy test; settings: Rate 1000 g/ha, scale of 0 to 100 where 0 is no effect and 100 is complete control, visually evaluated after 13 to 15 days
Summary of the method: (§1)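 Treatment: formulated chemical applied to flooded paddy plants at 2-leaf stage. Hold: greenhouse, 13–15 days. Scoring: visual comparison to controls, 0 (no effect) to 100 (complete control).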

[2] = tested on: barnyardgrass (Echinochloa crus-galli); test: Test B flooded paddy test; settings: Rate 1000 g/ha, scale of 0 to 100 where 0 is no effect and 100 is complete control, visually evaluated after 13 to 15 days
Summary of the method: as §1

[3] = tested on: duck salad (Heteranthera limosa); test: Test B flooded paddy test; settings: Rate 1000 g/ha, scale of 0 to 100 where 0 is no effect and 100 is complete control, visually evaluated after 13 to 15 days
Summary of the method: as §1

rice (Oryza saliva) = test: Test B flooded paddy test; settings: Rate 1000 g/ha, scale of 0 to 100 where 0 is no effect and 100 is complete control, visually evaluated after 13 to 15 days
Summary of the method: as §1

[4] = tested on: velvetleaf (Abutilon theophrasti); test: Test A postemergence, sprayed to runoff; design: scale not given here; settings: approx. eleven days
Method: (§2) Seeds of barnyardgrass (Echinochloa crus-galli), crabgrass (Digitaria spp.), giant foxtail (Setaria viridis), morning glory (Ipomoea spp.), redroot pigweed (Amaranthus retroflexus) and velvetleaf (Abutilon theophrasti) were planted into a sandy loam soil and treated preemergence by soil drench with test chemicals formulated in a non-phytotoxic solvent mixture which included a surfactant. At the same time, these crop and weed species were also treated postemergence sprayed to runoff with test chemicals formulated in the same manner. Plants ranged in height from two to eighteen cm and were in the one- to two-leaf stage for the postemergence treatment. Treated plants and untreated controls were maintained in a greenhouse for approximately eleven days, after which time all treated plants were compared to untreated controls and visually evaluated for injury. Plant response ratings, summarized in Table A, are based on a 0 to 10 scale where 0 is no effect and 10 is complete control. A dash (-) response means no test results.

[5] = tested on: morning glory (Ipomoea spp.); test: Test A postemergence, sprayed to runoff; design: scale not given here; settings: Morningglory, approx. eleven days
Method: as §2

Sunflower = test: Test C preemergence; settings: Rate 31 g/ha, scale 0 to 100
[6] = tested on: morningglory (Ipomoea hederacea); test: Test C preemergence; settings: for Plant response rating (0 to 100), Morningglory: Rate 250 g/ha, visual evaluation after 12 to 14 days
Summary of the method: (§3)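 Pre- and postemergence treatments used a non-phytotoxic solvent/surfactant formulation; post-treated plants measured 2 to 18 cm. Greenhouse hold 12–14 d; % control estimated visually relative to controls.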

[7] = tested on: yellow nutsedge (Cyperus esculentus); test: Test C preemergence; settings: for Plant response rating (0 to 100), Nutsedge: Rate 250 g/ha, visual evaluation after 12 to 14 days
Summary of the method: as §3

[8] = tested on: crabgrass (Digitaria sanguinalis); test: Test C preemergence; settings: for Plant response rating (0 to 100), Crabgrass: Rate 250 g/ha, visual evaluation after 12 to 14 days
Summary of the method: as §3

[9] = tested on: goosegrass (Eleusine indica); test: Test C preemergence; settings: for Plant response rating (0 to 100), Goosegrass: Rate 250 g/ha, visual evaluation after 12 to 14 days
Summary of the method: as §3

[10] = Rate 62 g/ha, scale 0 to 100, 0 no effect, 100 complete control
[11] = preemergence, Rate 31 g/ha, scale 0 to 100
[12] = preemergence, Rate 125 g/ha, scale 0 to 100, 0 no effect, 100 complete control

Row | SMILES | Plant response rating, Flatsedge [1] | Plant response rating, Barnyardgrass [2] | Plant response rating, Ducksalad [3] | Plant response rating, Rice (rice (Oryza saliva)) | Plant response rating (visual injury vs untreated controls) ([4]; Rate 500 g/ha) | Plant response rating (visual injury vs untreated controls) ([4]; Rate 2000 g/ha) | Plant response rating (visual injury vs untreated controls) ([5]; Rate 500 g/ha) | Plant response rating (visual injury vs untreated controls) ([5]; Rate 2000 g/ha) | other results
1 | CC(C)(C)c1ccn(C2CCN(c3cccc(C(F)(F)F)c3)C2=O)n1 (centres unmarked) [Example 3, 3-[3-(1,1-dimethylethyl)-1H-pyrazol-1-yl]-1-[3-(trifluoromethyl)phenyl]-2-pyrrolidinone] | 100 | 100 | 100 | 90 |  |  |  |  | Plant response rating (visual injury vs untreated controls) ([4]; Rate 250 g/ha): 0; Plant response rating (visual injury vs untreated controls) ([4]; Rate 1000 g/ha): 0; Plant response rating (visual injury vs untreated controls) ([5]; Rate 250 g/ha): 10; Plant response rating (visual injury vs untreated controls) ([5]; Rate 1000 g/ha): 10
2 | CC(C)(C)c1ccn(C2OCN(c3cccc(C(F)(F)F)c3)C2=O)n1 (centres unmarked) [compound 9] | 100 | 100 | 100 | 100 | 0 | 40 | 10 | 10 | 
3 | O=C1C(n2cc(Cl)c(C3CC3)n2)CCN1c1cccc(C(F)(F)F)c1 (centres unmarked) [Compound 12] | 30 | 0 | 0 | 0 | 0 | 0 | 0 | 0 | 
4 | O=C1C(n2cccn2)CCN1c1cccc(C(F)(F)F)c1 (centres unmarked) [Compound 15] | 0 | 0 | 0 | 0 | 0 | 10 | 30 | 20 | 
5 | O=C1C(n2ccc(C3CC3)n2)SCN1c1cccc(C(F)(F)F)c1 (centres unmarked) [Compound 26] | 0 | 0 | 0 | 0 | 10 | 10 | 20 | 50 | 
6 | Cc1ccn(C2CCN(c3cccc(C(F)(F)F)c3)C2=O)n1 (centres unmarked) [Compound 16] | 0 | 0 | 0 | 0 | 0 | 20 | 20 | 20 | 
7 | CC1(C)CCc2cn(C3CCN(c4cccc(C(F)(F)F)c4)C3=O)nc21 (centres unmarked) [Compound 10] | 100 | 100 | 100 | 60 | 0 | 50 | 10 | 20 | 
8 | O=C1C(n2ccc(C3CC3)n2)OCN1c1cccc(C(F)(F)F)c1 (centres unmarked) [Compound 28] | 100 | 100 | 100 | 50 | 0 | 50 | 10 | 20 | Plant response rating, Sunflower (Sunflower): 0; Plant response rating, Morningglory [6, 10]: 0; Plant response rating, Morningglory [6, 11]: 0; Plant response rating (0 to 100), Morningglory ([6]; preemergence): 0; Plant response rating, Morningglory [6, 12]: 0; Plant response rating, Nutsedge [7, 10]: 50; Plant response rating, Nutsedge [7, 11]: 50; Plant response rating (0 to 100), Nutsedge ([7]; preemergence): 50; Plant response rating, Nutsedge [7, 12]: 50; Plant response rating, Crabgrass [8, 10]: 90; Plant response rating, Crabgrass [8, 11]: 90; Plant response rating (0 to 100), Crabgrass ([8]; preemergence): 100; Plant response rating, Crabgrass [8, 12]: 100; Plant response rating, Goosegrass [9, 10]: 80; Plant response rating, Goosegrass [9, 11]: 40; Plant response rating (0 to 100), Goosegrass ([9]; preemergence): 100; Plant response rating, Goosegrass [9, 12]: 100
9 | CCC(C)c1nn(C2CCN(c3cccc(C(F)(F)F)c3)C2=O)cc1Cl (centres unmarked) [Compound 13] | 0 | 0 | 0 | 0 | 0 | 0 | 0 | 0 | 
10 | CC(C)c1ccn(C2OCN(c3cccc(C(F)(F)F)c3)C2=O)n1 (centres unmarked) [Compound 27] | 100 | 90 | 100 | 50 | 0 | 20 | 0 | 20 | Plant response rating, Sunflower (Sunflower): 0; Plant response rating, Morningglory [6, 10]: 20; Plant response rating, Morningglory [6, 11]: 0; Plant response rating (0 to 100), Morningglory ([6]; preemergence): 30; Plant response rating, Morningglory [6, 12]: 20; Plant response rating, Nutsedge [7, 10]: 60; Plant response rating, Nutsedge [7, 11]: 30; Plant response rating (0 to 100), Nutsedge ([7]; preemergence): 80; Plant response rating, Nutsedge [7, 12]: 60; Plant response rating, Crabgrass [8, 10]: 100; Plant response rating, Crabgrass [8, 11]: 90; Plant response rating (0 to 100), Crabgrass ([8]; preemergence): 100; Plant response rating, Crabgrass [8, 12]: 100; Plant response rating, Goosegrass [9, 10]: 90; Plant response rating, Goosegrass [9, 11]: 40; Plant response rating (0 to 100), Goosegrass ([9]; preemergence): 100; Plant response rating, Goosegrass [9, 12]: 100
11 | CC(C)(C)c1nn(C2CCN(c3cccc(C(F)(F)F)c3)C2=O)cc1Cl (centres unmarked) [Compound 14] | 0 | 0 | 0 | 0 | 0 | 0 | 0 | 0 | 
